Experimental data reported in the NIST ThermoML archive (doi:10.1021/je900722m).

Assay: xn = mol fraction of the nth substance listed
Details: 101 kPa, Liquid

CC(C)CO [2-methyl-1-propanol] + CCCCO
Details | mass density [kg/m3] | viscosity [mPa·s]
303.15 K, x2 = 0.101 | 794.896 | 3.447
303.15 K, x2 = 0.2029 | 795.74 | 3.443
303.15 K, x2 = 0.3008 | 796.558 | 3.389
303.15 K, x2 = 0.4 | 797.382 | 3.313
303.15 K, x2 = 0.5 | 798.209 | 3.237
303.15 K, x2 = 0.5999 | 799.026 | 3.166
303.15 K, x2 = 0.6999 | 799.838 | 3.102
303.15 K, x2 = 0.7993 | 800.635 | 3.04
303.15 K, x2 = 0.8995 | 801.426 | 2.971
308.15 K, x2 = 0.101 | 790.969 | 2.987
308.15 K, x2 = 0.2029 | 791.819 | 2.983
308.15 K, x2 = 0.3008 | 792.643 | 2.939
308.15 K, x2 = 0.4 | 793.476 | 2.871
308.15 K, x2 = 0.5 | 794.307 | 2.804
308.15 K, x2 = 0.5999 | 795.132 | 2.752
308.15 K, x2 = 0.6999 | 795.953 | 2.708
308.15 K, x2 = 0.7993 | 796.757 | 2.669
308.15 K, x2 = 0.8995 | 797.554 | 2.62
313.15 K, x2 = 0.101 | 786.977 | 2.591
313.15 K, x2 = 0.2029 | 787.84 | 2.587
313.15 K, x2 = 0.3008 | 788.67 | 2.562
313.15 K, x2 = 0.4 | 789.511 | 2.511
313.15 K, x2 = 0.5 | 790.349 | 2.462
313.15 K, x2 = 0.5999 | 791.184 | 2.424
313.15 K, x2 = 0.6999 | 792.012 | 2.391
313.15 K, x2 = 0.7993 | 792.829 | 2.363
313.15 K, x2 = 0.8995 | 793.633 | 2.327
318.15 K, x2 = 0.101 | 782.93 | 2.236
318.15 K, x2 = 0.2029 | 783.806 | 2.234
318.15 K, x2 = 0.3008 | 784.646 | 2.219
318.15 K, x2 = 0.4 | 785.496 | 2.191
318.15 K, x2 = 0.5 | 786.344 | 2.158
318.15 K, x2 = 0.5999 | 787.188 | 2.129
318.15 K, x2 = 0.6999 | 788.027 | 2.111
318.15 K, x2 = 0.7993 | 788.855 | 2.094
318.15 K, x2 = 0.8995 | 789.67 | 2.068
323.15 K, x2 = 0.101 | 778.816 | 1.964
323.15 K, x2 = 0.2029 | 779.704 | 1.958
323.15 K, x2 = 0.3008 | 780.558 | 1.951
323.15 K, x2 = 0.4 | 781.419 | 1.931
323.15 K, x2 = 0.5 | 782.279 | 1.91
323.15 K, x2 = 0.5999 | 783.136 | 1.89
323.15 K, x2 = 0.6999 | 783.985 | 1.877
323.15 K, x2 = 0.7993 | 784.825 | 1.864
323.15 K, x2 = 0.8995 | 785.654 | 1.843
328.15 K, x2 = 0.101 | 774.633 | 1.68
328.15 K, x2 = 0.2029 | 775.537 | 1.692
328.15 K, x2 = 0.3008 | 776.405 | 1.689
328.15 K, x2 = 0.4 | 777.281 | 1.684
328.15 K, x2 = 0.5 | 778.156 | 1.673
328.15 K, x2 = 0.5999 | 779.026 | 1.668
328.15 K, x2 = 0.6999 | 779.893 | 1.662
328.15 K, x2 = 0.7993 | 780.744 | 1.658
328.15 K, x2 = 0.8995 | 781.588 | 1.65
333.15 K, x2 = 0.101 | 770.368 | 1.507
333.15 K, x2 = 0.2029 | 771.292 | 1.523
333.15 K, x2 = 0.3008 | 772.177 | 1.52
333.15 K, x2 = 0.4 | 773.068 | 1.511
333.15 K, x2 = 0.5 | 773.961 | 1.499
333.15 K, x2 = 0.5999 | 774.846 | 1.489
333.15 K, x2 = 0.6999 | 775.732 | 1.488
333.15 K, x2 = 0.7993 | 776.596 | 1.484
333.15 K, x2 = 0.8995 | 777.457 | 1.48
338.15 K, x2 = 0.101 | 766.021 | 1.342
338.15 K, x2 = 0.2029 | 766.966 | 1.363
338.15 K, x2 = 0.3008 | 767.871 | 1.361
338.15 K, x2 = 0.4 | 768.778 | 1.357
338.15 K, x2 = 0.5 | 769.689 | 1.351
338.15 K, x2 = 0.5999 | 770.594 | 1.343
338.15 K, x2 = 0.6999 | 771.495 | 1.341
338.15 K, x2 = 0.7993 | 772.378 | 1.338
338.15 K, x2 = 0.8995 | 773.258 | 1.335
343.15 K, x2 = 0.101 | 761.578 | 1.204
343.15 K, x2 = 0.2029 | 762.548 | 1.226
343.15 K, x2 = 0.3008 | 763.474 | 1.23
343.15 K, x2 = 0.4 | 764.4 | 1.228
343.15 K, x2 = 0.5 | 765.333 | 1.225
343.15 K, x2 = 0.5999 | 766.26 | 1.218
343.15 K, x2 = 0.6999 | 767.182 | 1.215
343.15 K, x2 = 0.7993 | 768.085 | 1.213
343.15 K, x2 = 0.8995 | 768.986 | 1.211
